Laboratory results reported in paper PMC6502639 (Nature protocols, 2018).
Where two headings read alike, the source gives them in different places.

What was measured:
hiPSC-CMs [1] = test system: hiPSC-CMs
patient cardiac function = settings: patients; abbreviations in table footnote; ref Table S1 in Sharma et al. 10; cited from earlier work
hiPSC-CMs [2] = settings: cited from earlier work; for hiPSC-CM cytotoxicity (in words): hiPSC-CMs
hiPSC-CMs [3] = settings: cited from earlier work
hiPSC-CMs [4] = settings: cited from earlier work; remark: listed apart in the source
hiPSC-CMs [5] = settings: cited from earlier work; remark: listed apart in the source
[6] = 0 to 1, average of normalized CoB and LD50 corrected by Cmax, without EC or AE
[7] = concentration at which 50% loss in hiPSC-CM viability is observed, 72 h

| Structure (SMILES) | Normalized CSI-Lite (CSINLITE) (hiPSC-CMs [1]; human) | Clinically reported cardiotoxicity (patient cardiac function) | LD50 (hiPSC-CMs [2]) [µM] | Normalized CSI (CSIN) (hiPSC-CMs [3]) | hiPSC-CM contractility alteration (in words) (hiPSC-CMs [4]) | hiPSC-CM cytotoxicity (in words) (hiPSC-CMs [2]) | Normalized CSI-Lite (CSINLITE) (hiPSC-CMs [1]; [6]) | LD50 (hiPSC-CMs [2]; [7]) [µM] | Effect on hiPSC-CM action potential / electrophysiology (in words) (hiPSC-CMs [5]) |
| --- | --- | --- | --- | --- | --- | --- | --- | --- | --- |
| CN(C)C/C=C/C(=O)Nc1cc2c(Nc3ccc(F)c(Cl)c3)ncnc2cc1O[C@H]1CCOC1 [Afatinib] | 0.515 | None | 12.30 | 0.444 | – | – | – | – | – |
| CNC(=O)c1ccccc1Sc1ccc2c(/C=C/c3ccccn3)n[nH]c2c1 [Axitinib] | 1.000 | HF (rare), Hy | – | 1.000 | does not substantially alter | does not substantially alter | – | – | – |
| COc1cc(Nc2c(C#N)cnc3cc(OCCCN4CCN(C)CC4)c(OC)cc23)c(Cl)cc1Cl [Bosutinib] | – | – | – | – | – | – | 0.423 | 12.39 | – |
| COc1cc2nccc(Oc3ccc(NC(=O)C4(C(=O)Nc5ccc(F)cc5)CC4)cc3)c2cc1OC [Cabozantinib] | 1.000 | None^b | – | 0.769 | – | – | – | – | – |
| C[C@@H](Oc1cc(-c2cnn(C3CCNCC3)c2)cnc1N)c1c(Cl)ccc(F)c1Cl [Crizotinib] | – | QT, Brady | 8.60 | 0.063 | – | – | 0.067 | – | – |
| CC(C)(C)c1nc(-c2cccc(NS(=O)(=O)c3c(F)cccc3F)c2F)c(-c2ccnc(N)n2)s1 [Dabrafenib] | – | – | – | 0.459 | – | – | 0.561 | 100.68 | – |
| Cc1nc(Nc2ncc(C(=O)Nc3c(C)cccc3Cl)s2)cc(N2CCN(CCO)CC2)n1 [Dasatinib] | 0.599 | QT, PE, Hy | – | 0.524 | – | – | – | 42.00 | – |
| COc1cccc2c1C(=O)c1c(O)c3c(c(O)c1C2=O)C[C@@](O)(C(=O)CO)C[C@@H]3O[C@H]1C[C@H](N)[C@H](O)[C@H](C)O1 [Doxorubicin] | 0.008 | HF, LV^a | – | 0.010 | – | – | – | 0.78 | – |
| C#Cc1cccc(Nc2ncnc3cc(OCCOC)c(OCCOC)cc23)c1 [Erlotinib] | 0.570 | MI (rare) | 87.60 | 0.653 | – | – | – | – | – |
| COc1cc2ncnc(Nc3ccc(F)c(Cl)c3)c2cc1OCCCN1CCOCC1 [Gefitinib] | – | None | – | – | – | – | – | – | – |
| C=CC(=O)N1CCC[C@@H](n2nc(-c3ccc(Oc4ccccc4)cc3)c3c(N)ncnc32)C1 [Ibrutinib] | 0.580 | – | – | 0.507 | – | – | – | – | – |
| CS(=O)(=O)CCNCc1ccc(-c2ccc3ncnc(Nc4ccc(OCc5cccc(F)c5)c(Cl)c4)c3c2)o1 [Lapatinib] | 0.190 | LV, QT^b | – | 0.209 | – | – | – | 100.76 | – |
| Cc1cn(-c2cc(NC(=O)c3ccc(C)c(Nc4nccc(-c5cccnc5)n4)c3)cc(C(F)(F)F)c2)cn1 [Nilotinib] | 0.148 | QT, LV, Vas^a | 29.00 | – | – | – | – | – | – |
| Cc1ccc(Nc2nccc(N(C)c3ccc4c(C)n(C)nc4c3)n2)cc1S(N)(=O)=O [Pazopanib] | – | QT, LV (rare)^b | – | 0.671 | – | – | 1.000 | – | – |
| Cc1ccc(C(=O)Nc2ccc(CN3CCN(C)CC3)c(C(F)(F)F)c2)cc1C#Cc1cnc2cccnn12 [Ponatinib] | – | – | – | – | – | – | 0.225 | 4.30 | – |
| CNC(=O)c1cc(Oc2ccc(NC(=O)Nc3ccc(Cl)c(C(F)(F)F)c3)c(F)c2)ccn1 [Regorafenib] | – | MI, Hy^b | – | 0.010 | – | – | 0.010 | 7.10 | – |
| CNC(=O)c1cc(Oc2ccc(NC(=O)Nc3ccc(Cl)c(C(F)(F)F)c3)cc2)ccn1 [Sorafenib] | 0.003 | QT, LV, HF, MI, Hy | 3.40 | 0.004 | – | highly cytotoxic to hiPSC-CMs | – | – | – |
| CCN(CC)CCNC(=O)c1c(C)[nH]c(/C=C2\C(=O)Nc3ccc(F)cc32)c1C [Sunitinib] | 0.292 | HF, LV, MI, QT, Hy^b | 12.70 | 0.218 | – | – | – | – | – |
| CC(=O)Nc1cccc(-n2c(=O)n(C3CC3)c(=O)c3c(Nc4ccc(I)cc4F)n(C)c(=O)c(C)c32)c1 [Trametinib] | 1.000 | – | – | – | – | – | – | 66.80 | – |
| COc1cc2c(Nc3ccc(Br)cc3F)ncnc2cc1OCC1CCN(C)CC1 [Vandetanib] | – | QT, TdP, SCD, HF, Hy^a | – | 0.041 | elicited arrhythmias and alterations in hiPSC-CM contractility | – | 0.056 | 20.60 | caused changes in hiPSC-CM electrophysiology and action potential duration |
| CCCS(=O)(=O)Nc1ccc(F)c(C(=O)c2c[nH]c3ncc(-c4ccc(Cl)cc4)cc23)c1F [Vemurafenib] | – | – | – | 0.003 | – | – | 0.002 | 32.10 | – |
